Laboratory results taken from US9345677B2, “Compositions, methods and kits relating to HER-2 cleavage” (Incyte Corporation, priority 2003, dated 2016).

Biological target: T1, ADAM10 (Homo sapiens, UniProt O14672)
T1 construct: purchased R&D Systems 936-AD
T1 sequence (O14672 214-748): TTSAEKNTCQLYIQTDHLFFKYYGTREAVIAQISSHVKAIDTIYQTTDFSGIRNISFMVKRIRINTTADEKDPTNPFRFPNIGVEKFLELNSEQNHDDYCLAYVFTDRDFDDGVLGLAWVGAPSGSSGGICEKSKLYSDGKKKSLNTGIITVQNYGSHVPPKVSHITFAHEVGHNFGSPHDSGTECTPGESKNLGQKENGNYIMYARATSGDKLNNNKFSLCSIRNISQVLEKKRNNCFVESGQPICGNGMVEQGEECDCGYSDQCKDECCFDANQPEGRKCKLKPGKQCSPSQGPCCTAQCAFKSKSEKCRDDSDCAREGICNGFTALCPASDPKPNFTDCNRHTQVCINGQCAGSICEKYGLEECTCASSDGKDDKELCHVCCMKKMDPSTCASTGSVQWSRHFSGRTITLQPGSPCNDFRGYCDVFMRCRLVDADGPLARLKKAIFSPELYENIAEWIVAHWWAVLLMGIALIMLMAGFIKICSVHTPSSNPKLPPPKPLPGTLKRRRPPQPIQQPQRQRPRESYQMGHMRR
Assay: ADAM10 fluorogenic peptide biochemical assay
Experimental: 5 mM Compound stock was prepared in DMSO. Compound plate was prepared by 2-fold dilution for 11-point curve, with highest concentration of 500 μM. 1 μL of compound in DMSO was transferred from compound plate to the assay plate. Enzyme solution was prepared in assay buffer with a concentration of 100 ng/50 μL. Substrate ((7-methoxycoumarin-4-yl)-acetyl-Pro-Leu-Ala-Gln-Ala-Val-(3-[2,4-dinitrophenyl]-L-2,3-diaminopropionyl)-Arg-Ser-Ser-Ser-Arg-NH2 (SEQ ID NO:48)) solution was prepared in assay buffer with a concentration of 20 μM. 50 μL of enzyme solution was added to the assay plate. The assay plate was incubated for 5 minutes. 50 μL of substrate solution was then added to the assay plate. The plate was protected from light and incubated at 37° C. for 4 hours. The reaction was stopped by adding 10 μL of 500 mM EDTA solution. The plate was read on a plate reader with excitation of 320 nm and emission of 405 nm.
Source of enzymes for biochemical assays: Except for ADAM17 and MT1-MMP, all recombinant human MMPs and ADAMs were obtained from R&D Systems (Minneapolis, Minn.). […]
In general, 5 mM compound stock was prepared in DMSO. […] The plate was read on a plate reader with excitation of 320 nm and emission of 405 nm. Percentage of inhibition was calculated for each concentration and IC50 value was generated from curve fitting. […]

Compound: Cc1cc([N+](=O)[O-])ccc1N1CCN(C(=O)[C@@H]2[C@@H](C(=O)NO)CC3(CC3)CN2C)CC1 [Compound 5, (6S,7S)-N-hydroxy-5-methyl-6-{[4-(2-methyl-4-nitrophenyl)piperazin-1-yl]-carbonyl}-5-azaspiro[2.5]octane-7-carboxamide]
- IC50: 98 nM
